Laboratory results reported in patent US10071103B2, “Treatments for resistant acne” (VYOME BIOSCIENCES PVT. LTD., priority 2014, dated 2018).
In brackets after ≈: the same amount, converted by molar mass. Where two headings read alike, the source gives them in different places. Blank lines part the entries; values can stand above or below the compound they belong to.

Key:
[1] = system: P. acnes clinical isolates; assay: MIC of P. acnes isolated from acne patients (clinical isolates); conditions: Cutibacterium acnes, clinical isolate susceptible to clindamycin and erythromycin;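 also: anaerobic 96-well plate assay at 37 °C over 72 h, with Alamar blue dye as read-out; MIC in µg/mL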
Method: P. acnes were cultured in Brain Heart Infusion Agar (BHIA) at 37° C. for 48 hours under anaerobic condition. […] For bacterial inoculum, P. acnes culture turbidity was adjusted to 0.5 McFarland standard (approximately 1.5×10^8) and further diluted (100 times with sterile BHI broth). Diluted P. acnes suspension (100 μl) was added to each well except sterility control wells (column 12 of 96 well plate). Inoculated plates were incubated at 37° C. for 72 hours under anaerobic condition. After incubation, MIC was determined by adding Alamar blue dye.

[2] = system: P. acnes MTCC 1951; type: cell-based, Propionibacterium acnes; conditions: for MPC: P. acnes, 10^10 cells inoculum; for MPC/MIC: ratio against P. acnes
Method: 3 to 4 Petri plates containing 48 h P. acnes culture was suspended in sterile Phosphate buffer saline, PBS (pH 7.2) and turbidity was adjusted to optical density of 1 at 600 nm (10^9 cells/ml). 50 ml of this culture suspension was centrifuged at 4000 rpm for 40 min. The supernatant was discarded and pellet resuspended in 250 μl of sterile PBS. 50 μl of these cell suspensions (10^10 cells) was spread over the plates containing various concentrations of antibiotics (around MIC range). Plates were incubated at 37° C. for 48 h and the lowest concentration of the drug that allowed no growth was taken as its MPC.

[3] = system: P. acnes MTCC 1951; assay: MIC by micro broth dilution (Alamar blue), clindamycin-susceptible P. acnes; type: cell-based, Propionibacterium acnes; conditions: Cutibacterium acnes, MTCC1951; Table 7; against P. acnes; read-out: MIC
Method: (§1) The plates were incubated at 37° C. for 48 h under anaerobic condition for P. acnes and 37° C. for 24 h for S. aureus The plates were read under Bio-Rad plate reader at 595 nm for optical density to generate the dose-response curves. The MIC of the test compound was recorded by addition of Alamar blue dye.
(§2) P. acnes (MTCC 3297, MTCC 1951& CCARM 9010) are cultured in Brain Heart Infusion (BHI) Broth at 37° C. for 48-72 h under anaerobic condition. The test compounds/formulations are initially diluted with suitable solvent and further diluted with BHI broth to get the required concentrations. Samples (100 μl) of different concentrations (prepared by serial dilution) are added to 96-well plate. To the wells, 100 μl of P. acnes BHI broth culture is added [culture turbidity adjusted against 0.5 McFarland standard (approx 1.5×10^8), and further diluted 100-fold with sterile BHI broth]. In addition Growth Control and Sterility Control are created using 100 μl each of P. acnes BHI broth culture and plain BHI broth, respectively.
(§3) Plates are incubated at 37° C. for 48-72 hrs under anaerobic condition. The plate is read under Bio-Rad plate reader @ 595 nm for optical density to generate the dose-response curves. The MIC of the test compound is recorded by addition of Alamar blue dye.
BHI broth and BHI agar media were prepared as per the manufacturer's instruction and autoclaved at 121° C. for 15 minutes. […] For MIC determination testing, gels are dissolved in the solvent and further diluted with BHI broth. Then, 96 wells plate are filled with 100 μl of BHI broth containing drug with different concentration to get the final concentrations of 0.06, 0.13, 0.25, 0.5, 1 and 2 μg/ml in different lanes (lane 1 to lane 6). Remaining lanes of the 96 well plate are used as growth control and sterility control. Finally, P. acnes culture suspension (approx 1.5×10^6) is added in all the wells except sterility control wells and plate is incubated at 37° C. for 48-72 h under anaerobic condition. At the end of 72 h, Alamar blue solution (20 μl) is added into the wells and incubated at 37° C. for 2 h. Plate is visualized for bacterial inhibitions and MIC values of the tested samples are determined. […]

[4] = system: P. acnes CCARM 9010; assay: MIC by micro broth dilution (Alamar blue), clindamycin-resistant/nonresponsive P. acnes; type: cell-based, Propionibacterium acnes; conditions: clindamycin-nonresponsive CCARM 9010
Method: as §1, §2, §3

MIC ([1]; P. acnes strain V2-9): 0.06 µg/mL
MIC ([1]; P. acnes strain V2-10): 0.06 µg/mL
MIC ([1]; P. acnes strain V3-9): 0.06 µg/mL
MIC ([1]; P. acnes strain V3-10): 0.06 µg/mL
MIC ([1]; P. acnes strain V4-6): 0.06 µg/mL
MIC ([1]; P. acnes strain V4-8): 0.06 µg/mL
MIC ([1]; P. acnes strain V4-13): 0.06 µg/mL
MIC ([1]; P. acnes strain V5-2): 0.06 µg/mL
MIC ([1]; P. acnes strain V5-5): 0.06 µg/mL
MIC ([1]; P. acnes strain V5-7): 0.06 µg/mL
MIC ([1]; P. acnes strain V6-5): 0.06 µg/mL
MIC ([1]; P. acnes strain V6-6): 0.06 µg/mL
MIC ([1]; P. acnes strain V6-7): 0.06 µg/mL
MIC ([1]; P. acnes strain V7-3): 0.06 µg/mL
MIC ([1]; P. acnes strain V7-4): 0.06 µg/mL
MIC ([1]; P. acnes strain V7-14): 0.06 µg/mL
Structure (SMILES): CN(C)c1ccc(O)c2c1C[C@H]1C[C@H]3[C@H](N(C)C)C(O)=C(C(N)=O)C(=O)[C@@]3(O)C(O)=C1C2=O [Minocycline, minocycline]

Structure (SMILES): CC1CCc2c(N3CCC(O)CC3)c(F)cc3c(=O)c(C(=O)O)cn1c23 (stereo not drawn) [Nadifloxacin]
MPC [2]: 1.2 µg/mL
MPC/MIC [2]: 9.2
MPC/MIC ([2]; listed as nadifloxacin): ~8
MIC [3]: 0.13 µg/mL (≈ 0.361 µM)

Structure (SMILES): CC[C@H]1OC(=O)[C@H](C)[C@@H](O[C@H]2C[C@@](C)(OC)[C@@H](O)[C@H](C)O2)[C@H](C)[C@@H](O[C@@H]2O[C@H](C)C[C@H](N(C)C)[C@H]2O)[C@](C)(O)C[C@@H](C)/C(=N\OCOCCOC)[C@H](C)[C@@H](O)[C@]1(C)O [Roxithromycin]
Activity / bacterial killing, dose response curve (in words) [4]: resistant

Structure (SMILES): CC1Sc2c(C(=O)O)c(=O)c3cc(F)c(N4CCNCC4)cc3n21 (stereo not drawn) [Ulifloxacin]
MPC [2]: 1.2 µg/mL
MPC/MIC [2]: 9.2
MIC [3]: 0.13 µg/mL (≈ 0.372 µM)
